Data published in article PMC5111108, “An insecticide resistance-breaking mosquitocide targeting inward rectifier potassium channels in vectors of Zika virus and malaria” (Scientific Reports, 2016).
Entries after “also recorded” stand apart in the source; their conditions may differ.

Columns and labels:
AnKir1 [1] = molecular target: T1, AnKir1 (Anopheles gambiae, UniProt A0A075M2J8); test: Tl+ flux assay in T-REx-HEK293 cells expressing AnKir1; type: cell-based
T1 sequence (A0A075M2J8 1-555): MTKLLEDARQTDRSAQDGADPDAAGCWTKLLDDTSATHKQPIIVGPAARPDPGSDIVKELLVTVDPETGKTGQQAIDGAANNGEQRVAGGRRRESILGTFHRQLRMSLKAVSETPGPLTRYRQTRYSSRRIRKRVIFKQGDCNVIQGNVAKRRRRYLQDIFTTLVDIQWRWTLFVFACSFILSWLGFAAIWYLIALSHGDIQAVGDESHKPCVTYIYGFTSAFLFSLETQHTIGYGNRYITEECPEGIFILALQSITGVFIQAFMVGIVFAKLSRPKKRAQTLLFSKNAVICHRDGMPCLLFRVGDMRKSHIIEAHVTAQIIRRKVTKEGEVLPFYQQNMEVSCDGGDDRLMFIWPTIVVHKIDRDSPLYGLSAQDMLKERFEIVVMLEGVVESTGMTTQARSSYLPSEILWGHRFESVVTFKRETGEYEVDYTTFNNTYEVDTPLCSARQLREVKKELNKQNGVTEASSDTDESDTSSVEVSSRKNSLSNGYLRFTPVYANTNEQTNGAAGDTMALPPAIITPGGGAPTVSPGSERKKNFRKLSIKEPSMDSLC
Description: Tl^+ flux assays were performed essentially as described previously. Briefly, stably transfected T-Rex-HEK-293 cells expressing AnKir1 channels were cultured overnight in 384-well plates (20,000 cells/20 μL/well black-walled, clear-bottomed BD PureCoat amine-coated plates (BD, Bedford, MA) with a plating media containing DMEM, 10% dialyzed FBS and 1 μg/mL tetracycline. Approximately twenty-four hours after cell plating, the cell culture medium was replaced with a dye-loading solution containing assay buffer (Hanks Balanced Salt Solution with 20 mM HEPES, pH 7.3), 0.01% (w/v) Pluronic F-127 (Life Technologies, Carlsbad, CA), and 1.2 μM of the thallium-sensitive dye Thallos-AM (TEFlabs, Austin, TX). Following 1 hr incubation at room temperature, the dye-loading solution was washed from the plates and replaced with 20 μL/well of assay buffer.
Tl+ flux assay development
Tl+ flux assays were performed essentiall y as described previousl y (1). Briefl y, stabl y transfect ed T-Rex -HEK- 293- AnKir1 cells were cultured overnight in 384-well plates in media containing DMEM, 10% dial yz ed FBS and 1μg/ m L tetrac ycline to induce channel expression
(Fig. S1A). The next day, the cell culture medium was replaced with a dye-loading solution containing assay buffer (Hanks Balanced Salt Solution with 20 mM HEPES, pH 7.3), 0.01% (w/v) Pluronic F-127 (Li fe Technologies, Carlsbad, CA), and 1.2 μM of the thallium-sensitive dye Thallos-AM (TEFl abs, Austin, TX). Following 1 hr incubation at room temperature, the d ye-loading solution was washed from the plates and replaced with 20 μ L/well of assa y buffer. The plates were transferred t o a Ham amatsu Functional Drug Screening System 6000 (FDSS6000; Hamamatsu, Tokyo, J apan) where 20 μ L/well of test compounds in assay buffer (as prepared below) were added and allowed to incubate with the cells for 20 min. After the incubation period, a baseline recordi ng was collected at 1 Hz for 10 s (excitation 470 ± 20 nm, emission 540 ± 30 nm) followed by a t hallium stimulus buffer addition (10 μL/well) and data collection for an additional 4 min. The Tl + stimulus buffer contains in (mM) 125 NaHCO3, 1.8 CaSO4, 1 MgSO4, 5 glucose, 12 Tl2SO4, 10 HEPES, pH 7.4. For Tl + flux assays on Kir2.x, Kir4.1 and Kir6.2/SUR1 ex pressing cells, the Tl+ stimulus buffer contained 1.8 mM Tl 2SO4. To ensure the small-molecule vehicle DMSO had no direct effect on An Ki r1-dependent Tl+ flux, the assa y’s tolerance to different doses of DMSO was evaluated (Fig. S1B). The robustness and reproducibility of the assay was determined by comparing Tl+ flux through tetracycline-induced and tetracycline-uninduced cells (Fig. S1C). The Z’ value was calculated as described previously (1 ), using the […]
Z’ = 1- (3SD p + 3SD n)/ |meanp + meann | where SD is standard deviation, p and n are control and uninduced flux values respectivel y.
To compare the effect of DMSO on An Kir1-mediated Tl+ flux, a one-way ANOVA was performed with a Tuke y’s multiple comparison test. Prism software (GraphPad Software) was used to generate CRC from Tl+ fl ux ..Half-inhibition concentration (IC50) values were calculated from fits using a four parameter logistic equation.
High-throughput screeni ng
The test compounds were transferred to daughter pol yprop ylene 384-well plates (G reiner Bio-One, Monroe, NC) using an Echo555 liquid handler (Labcyte, Sunnyvale, CA), and then diluted into assay buffer to generat e a 2X stock in 0.6% DMSO (0.3% final). For Tl+ flux assays on Kir6.2/SUR1 expressing cells, test compounds were diluted in assay buffer containing diazoxide (250 μM final) to induce channel activation. Concentration- response curves (CRCs) were gener ated b y screening compounds at 3-fold dilution series (1 nM - 30 μM).
Tl+ flux data were anal yzed as previousl y d escri bed (2, 3) using a combination of Excel (Microsoft Corp, Redmond, WA) with XLfit add-in (IDBS, Guildford, Surre y, UK), Ori ginPro […]

AnKir1 [2] = molecular target: T1, AnKir1; test: Whole-cell patch clamp of AnKir1 in HEK-293T cells; type: cell-based; conditions: for IC50: currents at -120 mV
Source text: Transiently transfected HEK-293T cells expressing AnKir1 cells were voltage clamped in the whole-cell configuration of the patch clamp technique, as described previously. The extracellular bath solution contained (in mM): 135 NaCl, 5 KCl, 2 CaCl2, 1 MgCl2, 5 glucose, 10 HEPES free acid, pH 7.4, 290 mOsm/kg H2O. The pipette solution contained (in mM): 135 KCl, 2 MgCl2, 1 EGTA, 10 HEPES free acid, 2 Na2ATP (Roche, Indianapolis, IN), pH 7.3, 275 mOsm. Cells were voltage clamped at −75 mV, stepped to −120 mV for 200 msec, and then ramped to 120 mV at a rate of 2.4 mV/msec. Concentration-response curves (CRCs) were constructed by measuring the effects of increasing doses of inhibitors on AnKir1 currents at −120 mV. All recordings were made at room temperature (20–23 °C).
Patch clamp electrophysiology
Patch electrodes were pulled from silanized 1.5 mm outer diameter borosilicate microhematocrit tubes using a P-1000 Flaming/Brown micropipette puller (Sutter Instrument, Novato CA, USA). Electrode resistance ranged from 2 -4 MΩ. Whole-cell currents were recorded under voltage-clamp conditions using an Axopatch 200B amplifier (Molecular D evices, Sunn yvale, CA). Electri cal conn ections to the amplifier were made using Ag/AgCl wires and 3 M KCl/agar bridges. El ectroph ysiologi cal data were collected at 5 kHz and filtered at 1 kHz.
Data acquisition and anal ys is were performed using pClamp 9.2 software (Axon Instruments). […]

[3] = Tl+ flux, Tables S2/S3 and supplemental text, read-out: AnKir1 IC50
[4] = Tl+ flux assay, read-out: AnKir1 IC50 (Tl+ flux)

O=C1CCCc2c1ccn2CC(=O)N1CCCc2ccccc21 [Compound 4]
IC50 (AnKir1 [1]; [3]): 12.1 µM

O=C(Cn1nc(C(F)(F)F)c2c1CCCC2)N1CCCC2CCCCC21 (stereo not shown) [Compound 9]
IC50 (AnKir1 [1]; [3]): 6.7 µM

O=C(Cn1nc(C(F)(F)F)c2c1CCCC2)N1CCCC(c2ccccc2)C1 (stereo not shown) [Compound 12]
IC50 (AnKir1 [1]; [3]): 5.6 µM

CC1CC(C)CN(C(=O)Cn2nc(C(F)(F)F)c3c2CCCC3)C1 (stereo not shown) [Compound 13]
IC50 (AnKir1 [1]; [3]): 4.5 µM

O=C(Cn1nc(C(F)(F)F)c2c1CCCC2)N1CCCc2ccccc21 [VU041, 1-(3,4-dihydroquinolin-1(2H)-yl)-2-(3-(trifluoromethyl)-4,5,6,7-tetrahydro-1H-indazol-1-yl)ethan-1-one]
Hill coefficient (patch clamp, AnKir1) (AnKir1 [2]): 1.3 | time-course and reversibility of AnKir1 inhibition (AnKir1 [2]; 10 μM, wash-out with control saline): rapid and partially reversible | IC50 (AnKir1 [2]): 0.496 µM | Hill-coefficient (Tl+ flux, AnKir1) (AnKir1 [1]; Tl+ flux CRC): 1.1 | IC50 (AnKir1 [1]; [4]): 2.5 µM | IC50 (AnKir1 [1]; [3]): 2.3 µM

O=C(Cn1ncc2c1CCOC2)N1CCCc2ccccc21 [VU730]
IC50 (AnKir1 [2]): 0.717 µM | IC50 (AnKir1 [1]; [4]): 2.4 µM

O=C(Cn1nc(C(F)(F)F)c2c1CCCC2)NC1CCC1 [VU937]
IC50 (AnKir1 [2]): 29.7 µM | AnKir1 inhibition relative to VU041 (fold less) (AnKir1 [2]; patch clamp): 60 fold | AnKir1 IC50 (AnKir1 [1]; Tl+ flux, Tables S2/S3 and supplemental text, listed as 18): not tolerated; also recorded: inactive | inhibition at 30 µM (AnKir1 [1]; at 30 μM, read-out: inhibition of AnKir1-mediated Tl+ flux): < 50%
